Drawing on patent publication US20240270762A1, “PENICILLIN-BINDING PROTEIN INHIBITORS” (priority 2021, published 2024), this text covers MIC and EC50 for nine molecules.

For experiment [1], the system named is E. coli D22. The experiment can be described thus: microbe, parasite or virus in culture. As to conditions: Escherichia coli, D22, read-out: MIC E. coli D22. The format is cell-based.
Experiment [2] concerns N. gonorrhoeae MS11. Kind of experiment: Liquid broth MIC in Fastidious broth. The settings on record: Neisseria gonorrhoeae, MS11, read-out: Minimum Inhibitory Concentration (MIC), N. gonorrhoeae MS11.
For experiment [3], the target named is T1, PBP2 from Neisseria gonorrhoeae (FA19) (Neisseria gonorrhoeae, UniProt P08149).
T1 construct: made in house
The experiment can be described thus: Bocillin-FL fluorescence polarization competition binding, N. gonorrhoeae PBP2. The settings on record: fluorescence polarization competition binding assay using Bocillin-FL, read-out: N. gonorrhoeae PBP2 Potency. In a few lines:
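Fluorescence polarization competition with 0.1 μM Bocillin-FL (fluorescent penicillin V) against 0.25 μM N. gonorrhoeae FA19 PBP2 in 50 mM Hepes pH 8.0, 300 mM NaCl, 10% glycerol. Boronic acid inhibitors were preincubated with PBP, then Bocillin-FL was added and FP read (490/520 nm) up to 60 min. EC50 is the concentration halving PBP-bound Bocillin-FL.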
In general terms: Fluorescence polarisation rises when a labelled molecule tumbles more slowly, as on binding a larger partner.

In experiment [4] the test system is N. gonorrhoeae WHO G. The experiment can be described thus: Liquid broth MIC in Fastidious broth. The settings on record: Neisseria gonorrhoeae, read-out: Minimum Inhibitory Concentration (MIC), N. gonorrhoeae WHO G.
Experimental: Additional antibacterial testing of the series was performed in 8 reference strains of N. gonorrhoeae (ATCC 49226, FA1090, MS 11, WHO G, WHO L, WHO M, WHO K, WHO X, WHO Z, WHO Q, CDC-0197). ATCC 49226, FA1090, MS11, WHO G, WHO L, and WHO M produce wild type or wild-type like PBP2. WHO K, WHO X, WHO Z, WHO Q, and CDC-0197 produce mosaic PBP2. Liquid broth-based assays were used for antibacterial testing of PBP inhibitors in Neisseria gonorrhoeae. Briefly, cryo-preserved bacterial cultures of clinical strains were streaked for isolation on Chocolate Agar (72 g/L (2×) GC Agar Base (BD #228950) and 2% (2×) Hemoglobin was autoclaved at 121° C. for 20 minutes to sterilize. Once cooled to ˜50° C. the 2×GC Agar Base and 2× Hemoglobin solutions are combined and 1% IsoVitaleX Enrichment (BD #211876) was added to the solution). Strains were incubated at 36° C. and 5% CO2 to allow growth of colonies, 24 hours before inoculum preparation. 2-fold serial dilutions of test compounds were conducted in a 96 well plate with a final volume of 75 μL per well at 2-fold the final desired concentration in Fastidious broth (Remel #R07664). For preparation of assay inoculum, a direct suspension was prepared by aseptically swabbing 10-15 colonies from agar plates into culture tubes containing 2 mL of fresh sterile saline. After the dilution plates were set up, direct suspensions were then diluted in a cuvette containing sterile saline and the optical density was measured at 600 nm. Inocula were diluted such that 75 μL of this culture in Fastidious broth results in a starting bacterial concentration of 5×10^5 CFU/mL when added to the dilution plates. The plates were incubated for ˜24 hours at 36° C. and 5% CO2.
For experiment [5], the system named is P. aeruginosa (ΔmexAB-oprM). Kind of experiment: Broth microdilution MIC in CAMHB. The format is cell-based. As to conditions: Pseudomonas aeruginosa; read-out: MIC P. aeruginosa ΔmexAB-oprM. For orientation: Dilution methods test growth across graded concentrations, often in twofold steps.
Experiment [6] relates to N. gonorrhoeae WHO M. Kind of experiment: Liquid broth MIC in Fastidious broth. The settings on record: Neisseria gonorrhoeae, read-out: Minimum Inhibitory Concentration (MIC), N. gonorrhoeae WHO M.

SMILES strings stand for the structures. Converted amounts (≈) assume the structure as drawn. Where only a bound is given, the exact number is not on record here.

T1 sequence (P08149 whole entry): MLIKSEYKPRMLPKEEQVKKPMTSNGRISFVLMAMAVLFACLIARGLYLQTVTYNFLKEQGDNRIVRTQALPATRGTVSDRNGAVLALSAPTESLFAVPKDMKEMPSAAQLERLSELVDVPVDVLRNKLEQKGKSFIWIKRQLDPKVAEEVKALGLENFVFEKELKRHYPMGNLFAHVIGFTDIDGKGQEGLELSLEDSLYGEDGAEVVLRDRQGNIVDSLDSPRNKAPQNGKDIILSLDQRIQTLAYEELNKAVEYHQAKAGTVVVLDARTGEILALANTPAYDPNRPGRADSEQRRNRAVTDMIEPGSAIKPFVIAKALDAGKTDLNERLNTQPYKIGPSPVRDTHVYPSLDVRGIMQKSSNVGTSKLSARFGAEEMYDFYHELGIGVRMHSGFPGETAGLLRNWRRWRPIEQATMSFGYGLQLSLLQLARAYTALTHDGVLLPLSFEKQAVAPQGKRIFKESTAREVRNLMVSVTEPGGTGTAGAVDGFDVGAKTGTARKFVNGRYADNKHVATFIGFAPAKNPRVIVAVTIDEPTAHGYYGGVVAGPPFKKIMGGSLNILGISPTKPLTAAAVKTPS

In the case of `CS(=O)(=O)N1CCC[C@H]1C(=O)N[C@H](C(=O)N[C@H]1Cc2cccc(C(=O)O)c2OB1O)c1ccc(P(=O)(O)O)cc1` [Example 43, (R)-2-hydroxy-3-((S)-2-((S)-1-(methylsulfonyl)pyrrolidine-2-carboxamido)-2-(4-phosphonophenyl)acetamido)-3,4-dihydro-2H-benzo[e][1,2]oxaborinine-8-carboxylic acid], the MIC in experiment [1] was 32 to 64 µg/mL (≈ 53.8 to 108 µM); in experiment [2], 4 to 8 µg/mL (≈ 6.72 to 13.4 µM); in experiment [4], 4 to 8 µg/mL (≈ 6.72 to 13.4 µM); in experiment [5], over 128 µg/mL; in experiment [6], 1 to 2 µg/mL (≈ 1.68 to 3.36 µM). Besides, the EC50 in experiment [3] is 50 to 250 µM.

As for `CS(=O)(=O)N1CCC[C@H]1C(=O)N[C@@H](C(=O)N[C@H]1Cc2cccc(C(=O)O)c2OB1O)c1ccc(P(=O)(O)O)cc1` [Example 44, (R)-2-hydroxy-3-((R)-2-((S)-1-(methylsulfonyl)pyrrolidine-2-carboxamido)-2-(4-phosphonophenyl)acetamido)-3,4-dihydro-2H-benzo[e][1,2]oxaborinine-8-carboxylic acid], the MIC in experiment [1] is 8 to 16 µg/mL (≈ 13.4 to 26.9 µM); in experiment [2], 1 to 2 µg/mL (≈ 1.68 to 3.36 µM); in experiment [4], 1 to 2 µg/mL (≈ 1.68 to 3.36 µM); in experiment [5] it was 32 to 64 µg/mL (≈ 53.8 to 108 µM); in experiment [6], under 1 µg/mL. Also, the EC50 in experiment [3] is under 10 µM.

Take `CS(=O)(=O)N1CCN(C(=O)NC(C(=O)N[C@H]2Cc3cccc(C(=O)O)c3OB2O)c2ccc(P(=O)(O)O)c(F)c2O)C1=O` (stereo partly drawn) [Example 48, (3R)-3-(2-(3-fluoro-2-hydroxy-4-phosphonophenyl)-2-(3-(methylsulfonyl)-2-oxoimidazolidine-1-carboxamido)acetamido)-2-hydroxy-3,4-dihydro-2H-benzo[e][1,2]oxaborinine-8-carboxylic acid]: the MIC in experiment [1] is 8 to 16 µg/mL (≈ 12.4 to 24.8 µM); in experiment [2], 1 to 2 µg/mL (≈ 1.55 to 3.1 µM); in experiment [4] it was under 1 µg/mL; in experiment [5] it was over 128 µg/mL; in experiment [6], under 1 µg/mL. Moreover, the EC50 in experiment [3] was under 10 µM.

For `O=C(O)c1cccc2c1OB(O)[C@@H](NC(=O)C(NC(=O)N1CCCC1=O)c1ccc(P(=O)(O)O)cc1)C2` (stereo partly drawn) [Example 57, (3R)-2-hydroxy-3-(2-(2-oxopyrrolidine-1-carboxamido)-2-(4-phosphonophenyl)acetamido)-3,4-dihydro-2H-benzo[e][1,2]oxaborinine-8-carboxylic acid], the MIC was 8 to 16 µg/mL (≈ 15.1 to 30.1 µM) in experiment [1]; under 1 µg/mL in experiment [2]; under 1 µg/mL in experiment [4]; over 128 µg/mL in experiment [5]; under 1 µg/mL in experiment [6]. Besides, the EC50 in experiment [3] was under 10 µM.

For `N#Cc1cccc(C(=O)N[C@@H](C(=O)N[C@H]2Cc3cccc(C(=O)O)c3OB2O)c2ccc(P(=O)(O)O)cc2)n1` [Example 180, (R)-3-((R)-2-(6-cyanopicolinamido)-2-(4-phosphonophenyl)acetamido)-2-hydroxy-3,4-dihydro-2H-benzo[e][1,2]oxaborinine-8-carboxylic acid], the MIC in experiment [1] is 2 to 4 µg/mL (≈ 3.63 to 7.27 µM); in experiment [2], 1 to 2 µg/mL (≈ 1.82 to 3.63 µM); in experiment [4], under 1 µg/mL; in experiment [5], 32 to 64 µg/mL (≈ 58.2 to 116 µM); in experiment [6] it was under 1 µg/mL. Besides, the EC50 in experiment [3] was under 10 µM.

On to `O=C(O)c1cccc2c1OB(O)[C@@H](NC(=O)C(NC(=O)c1ncccc1Cl)c1ccc(P(=O)(O)O)cc1)C2` (stereo partly drawn) [Example 183, (3R)-3-(2-(3-chloropicolinamido)-2-(4-phosphonophenyl)acetamido)-2-hydroxy-3,4-dihydro-2H-benzo[e][1,2]oxaborinine-8-carboxylic acid], for which the MIC in experiment [1] was 32 to 64 µg/mL (≈ 57.2 to 114 µM); in experiment [2], 4 to 8 µg/mL (≈ 7.15 to 14.3 µM); in experiment [4], 4 to 8 µg/mL (≈ 7.15 to 14.3 µM); in experiment [5], over 128 µg/mL; in experiment [6], 1 to 2 µg/mL (≈ 1.79 to 3.57 µM). For the same molecule, in experiment [3], the EC50 was under 10 µM.

For the molecule `O=C(NC(C(=O)N[C@H]1Cc2cccc(C(=O)O)c2OB1O)c1ccc(P(=O)(O)O)cc1)c1ccc(Cl)cn1` (stereo partly drawn) [Example 184, (3R)-3-(2-(5-chloropicolinamido)-2-(4-phosphonophenyl)acetamido)-2-hydroxy-3,4-dihydro-2H-benzo[e][1,2]oxaborinine-8-carboxylic acid], the MIC was 8 to 16 µg/mL (≈ 14.3 to 28.6 µM) in experiment [1]; under 1 µg/mL in experiment [2]; under 1 µg/mL in experiment [4]; over 128 µg/mL in experiment [5]; under 1 µg/mL in experiment [6]. In experiment [3], the EC50 is under 10 µM.

`NC(=O)c1ccc(C(=O)NC(C(=O)N[C@H]2Cc3cccc(C(=O)O)c3OB2O)c2ccc(P(=O)(O)O)cc2)nc1` (stereo partly drawn) [Example 188, (3R)-3-(2-(5-carbamoylpicolinamido)-2-(4-phosphonophenyl)acetamido)-2-hydroxy-3,4-dihydro-2H-benzo[e][1,2]oxaborinine-8-carboxylic acid]: the MIC was 8 to 16 µg/mL (≈ 14.1 to 28.2 µM) in experiment [1]; under 1 µg/mL in experiment [2]; under 1 µg/mL in experiment [4]; 32 to 64 µg/mL (≈ 56.3 to 113 µM) in experiment [5]; under 1 µg/mL in experiment [6]. Moreover, the EC50 in experiment [3] is under 10 µM.

In the case of `CCN1CCN(C(=O)NC(C(=O)N[C@H]2Cc3cccc(C(=O)O)c3OB2O)c2ccc(S(=O)(=O)O)cc2)C(=O)C1=O` (stereo partly drawn) [Example 189, (3R)-3-(2-(4-ethyl-2,3-dioxopiperazine-1-carboxamido)-2-(4-sulfophenyl)acetamido)-2-hydroxy-3,4-dihydro-2H-benzo[e][1,2]oxaborinine-8-carboxylic acid], the MIC is 2 to 4 µg/mL (≈ 3.4 to 6.8 µM) in experiment [1]; under 1 µg/mL in experiment [2]; under 1 µg/mL in experiment [4]; 8 to 16 µg/mL (≈ 13.6 to 27.2 µM) in experiment [5]; under 1 µg/mL in experiment [6]. The EC50 in experiment [3] was under 10 µM.
